Measured values: PubChem BioAssay (NCI)
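Briefly, cells in 96-well plates were exposed to five compound concentrations for 48 h, and endpoints were estimated by linear interpolation. GI50: concentration for 50% inhibition of growth. At the TGI there is no net growth.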

Legend:
Test in all cases: DTP human tumour cell line panel, 48 h
[1] = test system: SF-539 CNS
[2] = test system: OVCAR-8 ovarian
[3] = test system: KM12 colon
[4] = test system: CAKI-1 renal
[5] = test system: UACC-257 melanoma
[6] = test system: MDA-MB-435
[7] = test system: SNB-19 CNS
[8] = test system: OVCAR-4 ovarian
[9] = test system: BT-549 breast
[10] = test system: HCC-2998 colon

Structure (SMILES) | TGI [1] | TGI [2] | TGI [3] | TGI [4] | TGI [5] | TGI [6] | TGI [7] | TGI [8] | TGI [9] | TGI [10] | GI50 [1] | GI50 [10] | GI50 [3] | GI50 [4] | GI50 [6] | GI50 [7] | GI50 [8] | GI50 [2] | GI50 [5] | GI50 [9]
CN(C)CCCN1c2ccccc2C(C)(C)c2ccccc21 | 28.4 µM | 29.8 µM | 28.3 µM | 25.5 µM | 23.9 µM | 27.4 µM | 28.8 µM | 28.2 µM | 28.1 µM |  |  |  |  |  |  |  |  |  |  | 
O=C1CCCC(=O)N1CCc1c[nH]c2ccccc12 | > 100 µM | > 100 µM | > 100 µM | > 100 µM | > 100 µM |  | > 100 µM | > 100 µM |  | > 100 µM |  |  |  |  |  |  |  |  |  | 
c1ccc2cc3[s+]snc3cc2c1 | > 100 µM | > 100 µM | > 100 µM | > 100 µM | > 100 µM |  | > 100 µM | > 100 µM |  | > 100 µM |  |  |  |  |  |  |  |  |  | 
CN(C)CCNC(=O)c1cccc2[nH]c(-c3cccnc3)nc12 | 45.5 µM | 44.1 µM | > 100 µM | 88.1 µM | 39.9 µM |  | > 100 µM | 88.9 µM |  | 43.4 µM |  |  |  |  |  |  |  |  |  | 
CCCC/C=C1\CCC(C)(CN(C)C)C1=O (stereo not given) | > 100 µM | > 100 µM | > 100 µM | > 100 µM | > 100 µM |  |  | > 100 µM |  | > 100 µM |  |  |  |  |  |  |  |  |  | 
O=C(NCCCCCCNC(=O)OCCSCCn1cc(C(=O)NC(=O)OCc2ccccc2)c(=O)[nH]c1=O)OCCSCCn1cc(C(=O)NC(=O)OCc2ccccc2)c(=O)[nH]c1=O |  | > 100 µM | > 100 µM | > 100 µM | > 100 µM |  | > 100 µM | > 100 µM |  | > 100 µM |  |  |  |  |  |  |  |  |  | 
O=C(O)CCSC(=O)Nc1ccccc1F | > 100 µM |  | > 100 µM | > 100 µM |  |  | > 100 µM | > 100 µM |  | > 100 µM |  |  |  |  |  |  |  |  |  | 
COc1cc(-n2cc(-c3ccc(Cl)cc3)nc2SCc2cccc(C#N)c2)cc(OC)c1OC | 48.1 µM |  | > 100 µM | > 100 µM |  | > 100 µM | > 100 µM | 74.7 µM |  | > 100 µM | 15.5 µM | > 100 µM | > 100 µM | 38.5 µM | 82.9 µM | 48 µM | 20.9 µM |  |  | 
COc1ccc(/C=C(\C#N)n2nnc3ccccc32)cc1 | 0.869 µM | > 100 µM | > 21.7 µM | > 84.6 µM | > 100 µM |  | 13.3 µM | > 82.5 µM | 17.1 µM | 7.11 µM | 0.252 µM | 0.458 µM | 0.0948 µM | 0.0638 µM |  | 0.361 µM | 0.615 µM | 0.416 µM | 4.92 µM | 1.11 µM
O=C1C2C(c3ccccc3)NC(c3ccccc3)C1C(c1ccccc1)NC2c1ccccc1 (stereo not given) | > 100 µM | > 100 µM | > 100 µM | > 100 µM | > 100 µM | > 100 µM | > 100 µM | > 100 µM | > 100 µM |  |  |  |  |  |  |  |  |  |  | 
O=C1C2C=CC(C2)C(c2ccc(O)cc2)N1O (stereo not given) |  | > 100 µM | > 100 µM | > 100 µM | > 100 µM |  | > 100 µM | > 100 µM |  | > 100 µM |  |  |  |  |  |  |  |  |  | 
Cc1ccc(NC(=O)C(=O)CC(=O)c2c(C)n([O-])c3ccccc3[n+]2=O)cc1 | 62.5 µM | 55.8 µM | > 100 µM | > 100 µM | 50.7 µM |  | > 100 µM | 96.3 µM |  | > 100 µM |  |  |  |  |  |  |  |  |  | 
O=c1oc2cc(N=Cc3ccc4c(c3)OCO4)ccc2c2ccccc12 | > 100 µM | > 100 µM | > 100 µM | > 100 µM | > 100 µM | > 100 µM | > 100 µM | > 100 µM | > 100 µM |  |  |  |  |  |  |  |  |  |  | 
O=c1nc(NC(c2ccccc2)(c2ccccc2)c2ccccc2)ccn1CCNCCn1ccc(NC(c2ccccc2)(c2ccccc2)c2ccccc2)nc1=O | 29.6 µM | 38.7 µM | 11.9 µM | > 100 µM | 23.3 µM |  | 23.4 µM | 49 µM |  | 17.1 µM |  |  |  |  |  |  |  |  |  | 
Cc1[nH]c(=O)n2c(C)nnc2c1C(=O)Nc1cc(Cl)cc(Cl)c1 | 78.4 µM | > 100 µM | > 100 µM | > 100 µM |  |  |  | > 100 µM |  |  |  |  |  |  |  |  |  |  |  | 
C[C@]12CCC(=O)C(O)=C1CC[C@@H]1C2CC[C@]2(C)Nc3c(cnn3-c3ccccc3)CC12 (stereo not given in full) | > 100 µM | > 100 µM | > 100 µM | > 100 µM | > 100 µM |  |  | > 100 µM |  | > 100 µM |  |  |  |  |  |  |  |  |  | 
Cc1ccc2nc(-c3ccccc3)c(N=O)n2c1 | 92.7 µM | > 100 µM | > 100 µM | > 100 µM | > 100 µM | > 100 µM | > 100 µM | > 100 µM | > 100 µM |  |  |  |  |  |  |  |  |  |  | 
O=C(O)CNS(=O)(=O)c1ccc(NC(=O)CI)cc1 | 30 µM | 48.6 µM | 68.5 µM | > 100 µM | > 100 µM |  | > 100 µM | 41.4 µM |  | > 100 µM |  |  |  |  |  |  |  |  |  | 
COC(=O)[C@]12CC=C3O[C@@H]4OC5(CCCCC5)O[C@@H]4C3[C@@H]1C(=O)CCC2=O (stereo not given in full) |  | > 100 µM | > 100 µM | > 100 µM | > 100 µM |  | > 100 µM | > 100 µM |  | > 100 µM |  |  |  |  |  |  |  |  |  | 
COc1ccc(/C(=N\O)c2cc(C)c(OC)c(C)c2)cc1O |  | 71.6 µM | > 100 µM |  |  |  | > 100 µM | > 100 µM | > 100 µM | > 100 µM |  | 0.0279 µM | < 0.01 µM |  | < 0.01 µM | 0.0548 µM | 0.0279 µM | 0.0352 µM |  | 0.0261 µM
O=C(O)C1C(C(=O)O)C23CC2(C(=O)O)C2(C(=O)O)CCC3=C3CCCC312 (stereo not given) | 34.8 µM | 64.4 µM | 88.4 µM | 81.9 µM | 15.4 µM | 49.8 µM | 73.6 µM | 80.6 µM | 69.9 µM |  |  |  |  |  |  |  |  |  |  | 
COc1ccccc1C1c2cc3c(cc2OC(O)(CO)C1C(=O)O)OCO3 (stereo not given) (tested in a mixture with another compound) | > 100 µM | > 100 µM | > 100 µM |  | > 100 µM |  |  | > 100 µM |  | > 100 µM |  |  |  |  |  |  |  |  |  | 
